From US20040265847A1, “Method for treating Alzheimer's disease” (priority 1991, published 2004)

Experiments:
APP-degrading protease = test: Assay of APP-degrading protease (Zn^2+-enhanced degradation of plasma 130 kDa APP); type: biochemical, human; conditions: for influence on Zn^2+-enhanced APP proteolysis: young adult control preparation, two hours at 37° C., 20 μM ZnCl2
PC12 cells [1] = test: Effect of extracellular zinc on cultured PC12 cells (APP by Western blot); type: cell-based; conditions: 48 hr
Description: 10^6 PC12 cells were plated for 24 hr in the presence of Dulbecco's modified Eagle's medium (DMEM, N2) supplemented with 8% fetal calf serum (FCS). The medium was then removed and replaced with DMEM±2 to 50 μM ZnCl2 or another salt, and no FCS. Cells and media were harvested 48 hr later and aliquots of media, cell cytosol and membrane (following lysis and ultracentrifugation) were assayed for APP by Western blotting with mAb 22C11.

[2] = system: human brain 130/110 kDa APP; test: ^65Zn binding to human brain 130/110 kDa APP (time course, competition, Scatchard); conditions: for shift of competition curve relative to the Zn^2+ competition curve: competition for ^65Zn binding; for ^65Zn label competed off APP (of Bmax): unlabelled metal ion at 20 μM
Description: FIG. 4 is a graphical representation showing a time course analysis of ^65Zn binding to human brain 130/110 kDa APP. Amyloid protein precursor (APP) was purified according to the method in Moir et al. (1992). The preparation of purified 130 and 110 kDa APP was derived from human brain membrane extracts and contained the full-length precursor with carboxyl terminus intact but lacked the 17 residue signal peptide. The 130 and 110 kDa proteins were apparent in equal ratios on silver staining following polyacrylamide gel electrophoresis and were the only bands visible. The identity of these two proteins was confirmed by Western blots with monoclonal antibody 22C11 (which recognises an amino terminal epitope on APP), and by amino terminal sequencing. The protein concentration of the APP preparation was determined by amino acid analysis. Aliquots of APP (90 ng, =1.1 pmole, assuming the average amino acid formula weight of APP is =80 kDa) were incubated at 20° C. for the times indicated. Incubations (50 μl) were performed in 150 mM NaCl, 50 mM Tris-Hcl, pH 7.4 in the presence of 10^6 cpm of ^65Zn (175 nM). The incubation solution was then applied to a 1.1 ml bed volume Sephadex G25 (Pharmacia, Uppsala, Sweden) column pre-equilibrated with 150 mM NaCl, 50 mM Tris-HCl, pH 7.4 and allowed to settle before being desalted with 645 μl of the Equilibration buffer. […] The desalted protein was collected directly into counting tubes containing 10 ml aqueous counting scintillant. Less than two minutes was required to complete the desalting. The amount of ^65Zn bound to desalted APP was determined by counting the collected sample in a beta-counter set to the broadest channel. Counting was determined to be 51% efficient. The values shown are means±SD of n≧3 readings.
FIG. 5 is a graphical representation showing a competition analysis of ^65Zn binding to human brain 130/110 kDa APP. Aliquots of APP were incubated for 30 minutes with ^65Zn as in FIG. 4. The binding of the labelled Zn^2+ to APP was subjected to competition with unlabelled Zn^2+ in the form of the chloride salt. Data shown indicate the competition curves generated at pH 6.4 and 7.4. The binding of Zn^2+ to APP deteriorated at the lower pH (=45% of Bmax, pH 7.4). The values are means±SEM of n≧3 readings. The curves illustrated are typical of three experiments.
FIG. 6 is a graphical representation depicting a Scatchard analysis of ^65Zn binding to human brain 130/110 kDa APP.
Binding analysis was performed as follows: Aliquots of APP (90 ng, =1.1 pmole, assuming the average amino acid formula mass of APP is =80 kDa) were incubated at 20° C. Incubations (50 μl) were performed in 150 mM NaCl, 50 mM Tris-HCl, pH 7.4 in the presence of 10^6 CPM of ^65Zn (175 nM). The incubation solution was then applied to a 1.1 ml bed volume Sephadex G25 (Pharmacia, Uppsala, Sweden) column pre-equilibrated with 150 mM NaCl, 50 mM Tris-HCl, pH 7.4 and allowed to settle before being desalted with 645 μl of the equilibration buffer. […] The deslated protein was collected directly into counting tubes containing 10 ml aqueous counting scintillant (ACSII, Amersham). Less than two minutes was required to complete the desalting. The amount of ^65Zn bound to desalted APP was determined by counting the collected sample in a beta-counter set to the broadest channel. Counting was determined to be 51% efficient. The binding of the labelled Zn^2+ to APP was subjected to competition with unlabelled Zn^2+ and other metal chloride salts.

[3] = system: human brain full-length APP; test: ^125I-APP binding to heparin-Sepharose; conditions: for effect on profile of ^125I-APP elution from heparin-Sepharose: Co^2+ at 75 μM
Description: 100 kDa human brian full-length APP was iodinated by the Chloramine-T method. Iodinated APP (^125I-APP) was then separated from labelling reagents by Sephacryl G25 chromatography.
The column was then washed with 6 ml buffer 1 and the APP eluted with aliquots of high-NaCl buffers.

[4] = biological target: T1, APP purified from rat brain (Rattus norvegicus, UniProt P08592); test: heparin binding to APP in a Biosensor system; conditions: summary statement, 'may increase'
T1 construct: from tissue; host or cells: rat brain
T1 sequence (P08592 18-770): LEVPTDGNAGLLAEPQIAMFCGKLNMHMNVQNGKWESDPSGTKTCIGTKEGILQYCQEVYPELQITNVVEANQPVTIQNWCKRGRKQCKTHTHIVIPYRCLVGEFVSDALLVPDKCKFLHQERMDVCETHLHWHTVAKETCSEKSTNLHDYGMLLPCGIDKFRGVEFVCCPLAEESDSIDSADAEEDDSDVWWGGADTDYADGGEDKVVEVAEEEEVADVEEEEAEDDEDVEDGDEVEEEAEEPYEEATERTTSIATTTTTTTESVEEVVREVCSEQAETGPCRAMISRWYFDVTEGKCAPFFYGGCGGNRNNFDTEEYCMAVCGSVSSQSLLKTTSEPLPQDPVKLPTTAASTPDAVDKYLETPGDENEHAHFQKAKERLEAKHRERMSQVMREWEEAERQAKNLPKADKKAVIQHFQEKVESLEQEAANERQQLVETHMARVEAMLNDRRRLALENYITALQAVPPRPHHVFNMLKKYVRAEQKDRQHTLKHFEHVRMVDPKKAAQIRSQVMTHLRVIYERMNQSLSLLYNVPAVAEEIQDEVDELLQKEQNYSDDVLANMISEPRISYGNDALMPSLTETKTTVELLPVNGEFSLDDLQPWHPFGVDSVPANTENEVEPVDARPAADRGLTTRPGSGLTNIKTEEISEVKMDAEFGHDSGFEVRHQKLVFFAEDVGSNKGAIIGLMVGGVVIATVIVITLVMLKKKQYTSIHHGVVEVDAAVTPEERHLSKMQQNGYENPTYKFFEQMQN
Description: The effect of Zn^2+ in modulating heparin binding to APP was also studied in a Biosensor system. […] This effect was most pronounced and most specific for Zn^2+, as opposed to the absence of divalent cations or the presence of Ca^2+, Mg^2+ or Co^2+, and was most evident when the heparin:APP ratio was low. […] Zn^2+ at 50 nM promoted a =170% increase in heparin binding, the effect saturating at 70 μM.

[5] = system: human brain membrane-derived APP; test: trypsin digestion of human brain membrane-derived APP, Western blot with 22C11; type: biochemical
Description: The proteolytic activity of trypsin (Boehringer, Mannheim) was studied to determine whether it was modulated by a range of doses of heparin (Sigma) and ZnCl2. […] Western blots for APP using the APP binding monoclonal antibody 22C11 were used to monitor the progression of the proteolytic reaction and to detect breakdown products.

plasma APP = test: Effect of zinc loading upon human plasma APP; type: in vivo
Description: (§1) 100 mg elemental zinc (as sulphate, in capsules) was given orally to two individuals with Alzheimer's disease (NINCDS/ADRDC criteria with abnormal plasma APP profiles) and two age-matched controls (with normal plasma APP profiles). Zinc was continued for 7 days and morning fasting bloods collected before the commencement of zinc supplements and three weeks after ceasing the supplement. Western blots with monoclonal antibody 22C11 were carried out on 65 μg of plasma heparin-Sepharose eluate purified from the samples in the manner previously described. The results indicated an increase of 130 kDa species plasma APP relative to the other species present, in other words a shift towards the profile of APP species that is characteristic of Alzheimer's disease. The two control plasma APP profiles came to resemble Alzheimer's disease profiles, and the two Alzheimer's profiles worsened. The proportional increase in the 130 kDa species was approximately 20% per day of zinc supplementation.

[6] = Administration of zinc in Alzheimer's disease: neurological response; type: in vivo, human
Description: as §1
The subjects from Example 3 were studied.
The two AD volunteers because acutely unwell while on zinc supplementation. […] Eye movement abnormalities and general levels of self care worsened over the period of supplementation. This response was consistent with a neurotoxic response to the zinc supplementation.

trypsin = test: tryptic activity on fluorogenic substrate Z-F-R-AMC; type: biochemical; conditions: range of doses
PC12 cells [7] = test: Effect of extracellular APP on zinc uptake by PC12 cells; type: cell-based; conditions: 10 nM APP, within an hour (=4% in the absence of APP)
Description: 10^6 PC12 cells were plated for 24 hr in the presence of Dulbecco's modified Eagle's medium (DMEM, N2) supplemented with 8% fetal calf serum (FCS). The medium was then removed and replaced with DMEM with no FCS and incubated for a further 24 hr. The cells were then washed (×2 with DMEM) and incubated with DMEM supplemented with 10 nM 130/110 kDa purified brain membrane-associated APP carrying 20 000 CPM ^65Zn prepared as in FIG. 1 above. Following varying periods of incubation, the cells were harvested, washed, exposed to Pronase digestion to remove surface proteins and then lysed in scintillant and assayed in a beta-counter.

## [Cl][Al]([Cl])[Cl] [Al3Cl, reference compound]
APP-degrading protease
  influence on Zn^2+-enhanced APP proteolysis: Neither Al3Cl, the cysteine-protease inhibitor N-ethyl maleimide, nor the acid-protease inhibitor pepstatin A influenced the reaction
PC12 cells [1]
  effect on APP released into the media compared with zinc: far smaller stimulatory effects

## [Cl-].[Cl-].[Mg+2] [Mg^2+, reference compound]
[2]
  shift of competition curve relative to the Zn^2+ competition curve: shifted greater than two log units to the right
[3]
  effect on profile of ^125I-APP elution from heparin-Sepharose: did not alter the profile of ^125I-APP elution

## [Zn] [zinc]
APP-degrading protease; plasma APP from heparin-Sepharose eluates, 37° C.
  zinc concentration required to stimulate proteolysis: 20 μm
[4]
  increase of APP affinity for heparin: 5 to 10 fold
[5]; summary statement
  zinc concentration at which the protective effects of heparin are abolished: above 1 μm
Plasma APP; 100 mg elemental zinc orally for 7 days, AD and age-matched controls
  proportional increase in the 130 kDa species of plasma APP: approximately 20 % per day
Plasma APP; elderly control, four-fold higher dose over three days
  persistence of changes in plasma APP profile: persisted for three days after ceasing supplementation
[6]; AD volunteers
  return of cognitive function to previous levels after ceasing supplementation: within two weeks
[6]; AD volunteers, over the period of supplementation
  eye movement abnormalities and general levels of self care: worsened
[6]; Alzheimer's disease volunteers on oral zinc supplementation
  mini-mental state examination scores: deteriorating from moderately demented levels to unrecordable
[6]; healthy volunteers on zinc supplementation
  ill effects in healthy volunteers: no ill effects

## [Cu+2] [Cu^2+, reference compound]
[2]
  ^65Zn label competed off APP (of Bmax): 60%

## [Ca+2].[Cl-].[Cl-] [Ca^2+, reference compound]
[2]
  shift of competition curve relative to the Zn^2+ competition curve: shifted greater than two log units to the right
[3]
  effect on profile of ^125I-APP elution from heparin-Sepharose: did not alter the profile of ^125I-APP elution

## heparin [reference compound]
APP-degrading protease
  influence on Zn^2+-enhanced APP proteolysis: completely inhibited
[5]
  concentration at which protective effect saturated: 10 µM
[5]; trypsin 1:64, one hour at 37° C.
  heparin concentration causing marked reduction in rate and degree of brain APP degradation by trypsin: 100 nM
trypsin
  effect on tryptic activity: left tryptic activity unaltered

## [Cl][Al]([Cl])[Cl] [Al^3+]
[2]
  ^65Zn label competed off APP (of Bmax): 60%
[3]
  increase in ^125I-APP recovery in the 500-2000 mM NaCl fraction: approximately 4.5 fold
  effect on profile of ^125I-APP elution from heparin-Sepharose: decreased the recovery of ^125I-APP except in the 500-2000 mM NaCl fraction

## [Cl][Fe][Cl] [FeCl2, reference compound]
PC12 cells [1]
  effect on APP released into the media compared with zinc: had a similar effect

## [Co+2] [Co^2+, reference compound]
[2]
  ^65Zn label competed off APP (of Bmax): 70%
[3]
  effect on profile of ^125I-APP elution from heparin-Sepharose: increased the recovery of ^125I-APP in the 100-500 and 500-2000 mM NaCl fractions

## APP: 130/110 kDa purified brain membrane-associated amyloid precursor protein carrying ^65Zn
PC12 cells [7]
  ^65Zn counts internalized: 10%

## [Cl][Cu] [cuprous chloride, reference compound]
PC12 cells [1]
  effect on APP released into the media compared with zinc: far smaller stimulatory effects

B1: α1-antichymotrypsin (protein, UniProt P01011 24-423, looked up)
Alpha-1-antichymotrypsin: HPNSPLDEENLTQENQDRGTHVDLGLASANVDFAFSLYKQLVLKAPDKNVIFSPLSISTALAFLSLGAHNTTLTEILKGLKFNLTETSEAEIHQSFQHLLRTLNQSSDELQLSMGNAMFVKEQLSLLDRFTEDAKRLYGSEAFATDFQDSAAAKKLINDYVKNGTRGKITDLIKDLDSQTMMVLVNYIFFKAKWEMPFDPQDTHQSRFYLSKKKWVMVPMMSLHHLTIPYFRDEELSCTVVELKYTGNASALFILPDQDKMEEVEAMLLPETLKRWRDSLEFREIGELYLPKFSISRDYNLNDILLQLGIEEAFTSKADLSGITGARNLAVSQVVHKAVLDVFEEGTEASAATAVKITLLSALVETRTIVRFNRPFLMIIVPTDTQNIFFMSKVTNPKQA
APP-degrading protease
  influence on Zn^2+-enhanced APP proteolysis: incompletely inhibited
